# Legend:
# [1] = tested on: L. infantum; conditions: 25 mg/kg BID for five days, oral; cited from earlier work
# [2] = at 1 μM; cited from earlier work
# [3] = Safety and tolerability (adverse events), single ascending oral dose study; format: in vivo, human
# Procedure: The primary endpoint was assessment of the safety and tolerability of DNDI‐6148 by evaluation of the following parameters: adverse events (AEs), physical examination (including body weight), clinical neurological examination, vital signs, 12‐lead ECG, clinical laboratory (including serum chemistry, haematology, hormonology and urinalysis) and psychological and cognitive examinations.
# (§1) Safety was assessed by monitoring AEs throughout the study. Other safety monitoring included 12‐lead ECG recordings, measurement of vital signs, physical and neurological examinations, haematology, blood biochemistry and urinalysis and, for the last four participants of the 160 mg cohort and onwards, CRP and TNFα.
# To minimize risk, participants were dosed sequentially, using sentinels in each cohort (one receiving DNDI‐6148, one placebo), as per European Medicines Agency guidelines.[12] Stopping criteria used in that study are described in Supplementary Information, Text S2. If the previous dose was well tolerated, with no safety concerns, the Safety Review Committee decided on dose escalation after reviewing blinded safety and PK data from all available cohorts.
# [4] = design: method as in unpublished data; conditions: non‐clinical studies ref unpublished data; cited from earlier work
# [5] = Cardiac safety: ECG QTcF, QTcG, heart rate; format: in vivo, human
# Procedure: as §1
# Triplicate ECGs extracted from 24-hour Holter recordings at predefined time points aligned with the pharmacokinetic (PK) sampling were used for additional cardiac safety analyses. […] For the group correction, α was estimated as the slope of the linear relationship between ln(QT) and ln(RR), based on drug-free (placebo and pre-dose) data (Figure S1).
# [6] = pH 7.4; cited from earlier work
# [7] = tested on: L. donovani; conditions: 25 mg/kg BID for five days, oral; cited from earlier work
# [8] = cited from earlier work
# [9] = Urinary excretion and renal clearance, single ascending oral dose study; format: in vivo, human; conditions: single oral 10–380 mg
# Procedure: Urine was collected up to 72 h during the following intervals: pre‐dose, D1T0h – D1T12h, D1T12h – D2T24h, D2T24h – D3T48h and D3T48h – D4T72h. Urine was collected in containers containing 20 g citric acid monohydrate and stored at 4 °C for a maximum of 43 h. All urine passed during each interval period was combined and at the end of the interval, the pool of acidified urine was vigorously mixed; two aliquots were prepared, each with 1 mL of acidified urine and 1 mL of aqueous solution of 50 g/L bovine serum albumin (BSA) and 9 g/L NaCl.
# Tubes of acidified urine/BSA samples were capped immediately for each time point and stored at −80 °C. Samples of both acidified plasma and acidified urine/BSA were shipped for bioanalysis on dry ice by a specialized carrier. Temperatures were monitored using a data logger during transport.
# [10] = cited from earlier work; remark: listed apart in the source
# [11] = tested on: L. donovani; conditions: cited from earlier work
# [12] = Plasma pharmacokinetics, first-in-human single ascending oral dose study
# Procedure: This was a FIH, phase I, double‐blind, parallel, single ascending dose (SAD) study of DNDI‐6148 arginine monohydrate, administered as an oral suspension to healthy male participants. Cohorts 1–8 each included eight participants and were administered 10, 20, 40, 80, 160, 220, 300 or 380 mg (free form) of DNDI‐6148 (in six participants) or placebo (two participants).
# At the clinical site, a suspension was prepared extemporaneously by the pharmacist within 24 h prior to administration to participants (the timepoint for which stability data of the suspension were available). The IP powder was suspended in 30 mL ORA‐Sweet® (Paddock Laboratories, LLC, Minneapolis, USA) for taste and colour masking. Participants were administered between 4 and 25 mL of the suspensions, followed by the ingestion of 250 mL tap water. Opaque precision syringes were used to administer the solutions to minimize the risk of unblinding. To preclude any dietary effects on the PK of DNDI‐6148, participants fasted for 9 h before they received the IP or placebo. Treatments were administered under the supervision of the investigator at approximately 8 a.m. on Day 1.
# Blood samples (6 mL per time point) for pharmacokinetic analyses were collected on Day 1 pre‐dose and at the following post‐dose time points: 0.5,1, 1.5 (cohorts 1–4 only), 2, 2.5, 3, 4, 5 (cohorts 5–8 only), 6, 9, 12, 24, 48 and 72 h. […] Within 30 min of blood collection, blood samples were centrifuged at 1500g for 10 min at 4 °C and 500 μL of plasma were transferred into pre‐labelled polypropylene tubes prefilled with phosphoric acid 2% (1:1, v:v). Tubes were capped immediately for each time point, and the plasma was frozen in an upright position at −80 °C for storage.
# Concentrations of DNDI‐6148 were determined in acidified plasma and acidified urine/BSA mixture using a validated internally standardized liquid chromatography–tandem mass spectrometry (LC–MS/MS) assay with deuterated d4‐DNDI‐6148 as an internal standard. The lower limit of quantitation (LOQ) for DNDI‐6148 was 1 ng/mL in plasma and 10 ng/mL in urine.
# Values that were below the LOQ before the first concentration equal or above LOQ were set to zero. Other values below the LOQ were not used to calculate the PK parameters. The area under the plasma concentration‐time curve from time zero (pre‐dose) to the time of last quantifiable concentration (AUC0‐last) was calculated using the linear‐log trapezoidal rule. Elimination half‐life (t1/2) was calculated by the equation ln2/λz, after visual inspection of the plasma concentration‐time profiles (considering a minimum of 3 data points, including the last measurable data point and excluding Cmax).
# PK parameters were derived from plasma concentration vs. time data using non‐compartmental analysis in Phoenix WinNonlin® 8.1 (Certara Inc., Princeton, NJ, USA). Plasma concentration vs. time data and PK parameters were listed and summarized by dose level, using descriptive statistics. Mean concentrations were calculated only if at least ⅔ of the individual concentrations were above the lower LOQ (LLOQ). […] Planned sampling times were used to summarize plasma concentration data; actual sampling times were used in the derivation of PK parameters.
# [13] = tested on: L. infantum; conditions: cited from earlier work
smiles,measurement,setting,value
Cc1c(C(=O)Nc2ccc3c(c2)B(O)OC3)nnn1-c1ccccn1 [DNDI‐6148],efficacy in L. infantum mouse model of VL,[1],demonstrated efficacy
same,CLint in hepatocytes,[2],0.5 μL/min/10^6 cells
same,"TEAE Musculoskeletal and connective tissue disorders, participants n (%) [events]",[3]; 10 mg (N = 6),0
same,"TEAE Musculoskeletal and connective tissue disorders, participants n (%) [events]",[3]; 80 mg (N = 6),0
same,"TEAE Musculoskeletal and connective tissue disorders, participants n (%) [events]",[3]; 160 mg (N = 6),0
same,"TEAE Musculoskeletal and connective tissue disorders, participants n (%) [events]",[3]; 220 mg (N = 6),0
same,"TEAE Musculoskeletal and connective tissue disorders, participants n (%) [events]",[3]; 380 mg (N = 6),0
same,TEAEs (events),[3]; in vivo,10
same,participants with TEAEs,[3]; in vivo,8
same,"participants with TEAEs, percentage",[3]; in vivo,14.3%
same,maximal tolerated dose,[3]; single doses 10–380 mg,not reached
same,blood–brain barrier crossing,[4],cross the blood–brain barrier
same,largest mean ΔΔQTcG,"[5]; 160 mg, 12 h post-dose",7.24 ms
same,mean ΔΔQTcG,"[5]; 380 mg, 9 h post-dose",1.83 ms
same,QTcG changes from baseline,[5]; all doses,≤ 30 ms
same,QTcG values,[5]; all doses,≤ 450 ms
same,QTcF value >500 msec or change from baseline QTcF >60 msec,[5]; any participant,No QTcF value >500 msec or change from baseline QTcF >60 msec was recorded
same,upper limit of the 90% CI of ΔΔQTcF,"[5]; any single dose, concentration‐response modelling",≤ 10 ms
same,"maximum effect on ΔΔQTcF, estimated","[5]; dose of 380 mg, concentration‐response modelling","1.65 (90% CI: −0.635, 3.94) msec"
same,logD,[6],1.92
same,efficacy in L. donovani mouse model of VL,[7],demonstrated efficacy
same,unbound fraction in plasma,[8]; humans,6.6%
same,plasma protein binding (bound),[8]; species not stated,over 93%
same,fraction of the dose excreted by the kidneys as unchanged drug,[9],below 0.2%
same,CLint in human liver microsomes,[10],below 0.3 μL/min/mg
same,in vitro activity against L. donovani,[11],in the micromolar range
same,CL/F,"[12]; 10 mg single oral dose, GM",2.89 L/h
same,Cmax,"[12]; 10 mg single oral dose, GM",0.155 µg/mL
same,Vd/F,"[12]; 10 mg single oral dose, GM",52.89 L
same,t1/2,"[12]; 10 mg single oral dose, GM",12.7 h
same,CL/F,"[12]; 10 mg single oral dose, Mean",2.97 L/h
same,Cmax,"[12]; 10 mg single oral dose, Mean",0.156 µg/mL
same,Vd/F,"[12]; 10 mg single oral dose, Mean",53.52 L
same,t1/2,"[12]; 10 mg single oral dose, Mean",12.93 h
same,tmax,"[12]; 10 mg single oral dose, Mean",4 h
same,CL/F,"[12]; 20 mg single oral dose, GM",2.76 L/h
same,Cmax,"[12]; 20 mg single oral dose, GM",0.292 µg/mL
same,Vd/F,"[12]; 20 mg single oral dose, GM",57.51 L
same,t1/2,"[12]; 20 mg single oral dose, GM",14.42 h
same,CL/F,"[12]; 20 mg single oral dose, Mean",2.84 L/h
same,Cmax,"[12]; 20 mg single oral dose, Mean",0.296 µg/mL
same,Vd/F,"[12]; 20 mg single oral dose, Mean",57.82 L
same,t1/2,"[12]; 20 mg single oral dose, Mean",14.73 h
same,tmax,"[12]; 20 mg single oral dose, Mean",4 h
same,CL/F,"[12]; 40 mg single oral dose, GM",2.17 L/h
same,Cmax,"[12]; 40 mg single oral dose, GM",0.585 µg/mL
same,Vd/F,"[12]; 40 mg single oral dose, GM",61.18 L
same,t1/2,"[12]; 40 mg single oral dose, GM",19.52 h
same,CL/F,"[12]; 40 mg single oral dose, Mean",2.36 L/h
same,Cmax,"[12]; 40 mg single oral dose, Mean",0.598 µg/mL
same,Vd/F,"[12]; 40 mg single oral dose, Mean",64.01 L
same,t1/2,"[12]; 40 mg single oral dose, Mean",19.91 h
same,tmax,"[12]; 40 mg single oral dose, Mean",5 h
same,CL/F,"[12]; 80 mg single oral dose, GM",2.17 L/h
same,Cmax,"[12]; 80 mg single oral dose, GM",1.011 µg/mL
same,Vd/F,"[12]; 80 mg single oral dose, GM",69.86 L
same,t1/2,"[12]; 80 mg single oral dose, GM",22.31 h
same,CL/F,"[12]; 80 mg single oral dose, Mean",2.51 L/h
same,Cmax,"[12]; 80 mg single oral dose, Mean",1.021 µg/mL
same,Vd/F,"[12]; 80 mg single oral dose, Mean",71.15 L
same,t1/2,"[12]; 80 mg single oral dose, Mean",25.43 h
same,tmax,"[12]; 80 mg single oral dose, Mean",9 h
same,CL/F,"[12]; 160 mg single oral dose, GM",2.65 L/h
same,Cmax,"[12]; 160 mg single oral dose, GM",1.8153 µg/mL
same,Vd/F,"[12]; 160 mg single oral dose, GM",68.6 L
same,t1/2,"[12]; 160 mg single oral dose, GM",17.92 h
same,CL/F,"[12]; 160 mg single oral dose, Mean",2.83 L/h
same,Cmax,"[12]; 160 mg single oral dose, Mean",1.8253 µg/mL
same,Vd/F,"[12]; 160 mg single oral dose, Mean",70.79 L
same,t1/2,"[12]; 160 mg single oral dose, Mean",18.28 h
same,tmax,"[12]; 160 mg single oral dose, Mean",5 h
same,CL/F,"[12]; 220 mg single oral dose, GM",2.42 L/h
same,Cmax,"[12]; 220 mg single oral dose, GM",2.2854 µg/mL
same,Vd/F,"[12]; 220 mg single oral dose, GM",80.62 L
same,t1/2,"[12]; 220 mg single oral dose, GM",23.10 h
same,Cmax,"[12]; 220 mg single oral dose, Mean",2.5123 µg/mL
same,Vd/F,"[12]; 220 mg single oral dose, Mean",81.32 L
same,t1/2,"[12]; 220 mg single oral dose, Mean",24.17 h
same,tmax,"[12]; 220 mg single oral dose, Mean",5.50 h
same,CL/F,"[12]; 300 mg single oral dose, GM",3.02 L/h
same,Cmax,"[12]; 300 mg single oral dose, GM",2.9593 µg/mL
same,Vd/F,"[12]; 300 mg single oral dose, GM",99.99 L
same,t1/2,"[12]; 300 mg single oral dose, GM",22.91 h
same,tmax,"[12]; 300 mg single oral dose, GM",5.12 h
same,CL/F,"[12]; 300 mg single oral dose, Mean",3.28 L/h
same,Cmax,"[12]; 300 mg single oral dose, Mean",3.0735 µg/mL
same,Vd/F,"[12]; 300 mg single oral dose, Mean",104.45 L
same,t1/2,"[12]; 300 mg single oral dose, Mean",23.39 h
same,tmax,"[12]; 300 mg single oral dose, Mean",5.00 h
same,CL/F,"[12]; 380 mg single oral dose, GM",2.22 L/h
same,Cmax,"[12]; 380 mg single oral dose, GM",3.4872 µg/mL
same,Vd/F,"[12]; 380 mg single oral dose, GM",79.44 L
same,t1/2,"[12]; 380 mg single oral dose, GM",24.76 h
same,tmax,"[12]; 380 mg single oral dose, GM",5.28 h
same,CL/F,"[12]; 380 mg single oral dose, Mean",2.26 L/h
same,Cmax,"[12]; 380 mg single oral dose, Mean",3.606 µg/mL
same,Vd/F,"[12]; 380 mg single oral dose, Mean",79.82 L
same,t1/2,"[12]; 380 mg single oral dose, Mean",25.46 h
same,tmax,"[12]; 380 mg single oral dose, Mean",5.50 h
same,GM half‐life in plasma,[12]; 10 and 20 mg doses,around 13 h
same,"median tmax, generally",[12]; all dose levels,4 to 6 h
same,GM half‐life in plasma,[12]; higher doses,around 20 h
same,in vitro activity against L. infantum,[13],in the micromolar range
